In US11440907B1 (Merck Patent GmbH, priority 2018, dated 2022) one finds IC50 data, which are given here for 45 compounds.

A value given as a limit tells only on which side of the number the result lay.

In the first test the test system is β-catenin-TCF-mediated reporter transcription activity in Colo 205 cells. Description: Colo 205 reporter assay (TCF/LEF promoter-driven firefly luciferase). It counts as cell-based. Particulars: Colo 205 TCF/LEF luciferase reporter, 5 hours after compound addition, 384 well; read-out: Colo205 IC50. From the text:
The compounds of the invention described herein were screened using the assay procedure for β-catenin-TCF-mediated reporter transcription activity described below.
Reporter cell lines were generated by stably transfecting cells of cancer cell lines (e.g., colon cancer) with a plasmid reporter construct (From SABiosciences, a QIAGEN company) that includes TCF/LEF promoter driving expression of the firefly luciferase gene. TCF/LEF reporter constructs were made in which TCF/LEF promoter, a promoter with optimal number of TCF/LEF binding sites designed by SABiosciences, was linked upstream of the firefly luciferase gene. This construct could also include a puromycin resistance gene as a selectable marker. This construct could also be used to stably transfect Colo 205 cells, a colon cancer cell line having a mutated APC gene that causes a constitutively active β-catenin. A control cell line was generated using another plasmid construct containing the luciferase gene under the control of a CMV basal promoter which is not activated by β-catenin.
Colo 205 Cultured cells with a stably transfected reporter construct were plated at approximately 10,000 cells per well into 384 well multi-well plates for twenty four hours. The testing compounds were then added to the wells in 2-fold serial dilutions using a twenty micromolar top concentration. A series of control wells for each cell type received only compound solvent. Five hours after the addition of compound, reporter activity for luciferase was assayed, by addition of the SteadyGlo luminescence reagent (Promega). The reporter luminescence activity was measured using Pherastar plate reader (BMG Labtech). Readings were normalized to DMSO only treated cells, and normalized activities were then used in the IC50 calculations. The Colo 205 reporter assay data are summarized in Table 3: A<0.3 μM; 0.3 μM≤B<1.0 μM; 1.0 μM≤C<5.0 μM; D≥5.0 μM.
For orientation: Reporter assays use an easily measured gene product as a stand-in for the process of interest.
As usually defined, the IC50 is the midpoint of a concentration-inhibition curve. `Cc1cc(N2CCCOCC2c2cc([S+](C)[O-])ccc2Cl)nc(N)n1` (stereo not drawn) [I-123]: the IC50 lay within 300 to 1000 nM.

Staying with this test, now noted: Homo sapiens; Colo 205 TCF/LEF luciferase reporter, 5 hours after compound addition, 384 well; read-out: Colo205 IC50.
As for `Cc1cc(N2CCCOCC2c2cc([S+](C)[O-])ccc2Cl)nc(N)n1` (racemic) [I-110, (+/−)-4-(3-(2-chloro-5-(methylsulfinyl)phenyl)-1,4-oxazepan-4-yl)-6-methylpyrimidin-2-amine], the IC50 fell in the range of 300 to 1000 nM.

On to `COC(=O)c1ccc(OC)c(C2CCCCCN2c2cc(C)nc(N)n2)c1` (racemic) [I-111, (+/−)-Methyl 3-(1-(2-amino-6-methylpyrimidin-4-yl)azepan-2-yl)-4-methoxybenzoate], for which the IC50 fell in the range of 300 to 1000 nM.

`Cc1cc(N2CCCOCC2c2cc3c(cc2Cl)OCO3)nc(N)n1` (racemic) [I-113, (+/−)-4-[3-(6-chloro-1,3-benzodioxol-5-yl)-1,4-oxazepan-4-yl]-6-methyl-pyrimidin-2-amine]: the IC50 lay in the range of 300 to 1000 nM. In the case of `COc1ccc(C(=O)N(C)C)cc1C1CCCCCN1c1cc(C)nc(N)n1` (racemic) [I-115, (+/−)-3-(1-(2-amino-6-methylpyrimidin-4-yl)azepan-2-yl)-4-methoxy-N,N-dimethylbenzamide], the IC50 was in the range of 300 to 1000 nM. For the compound `COC(=O)c1ccc(Cl)c(C2COCCCN2c2cc(C)nc(N)n2)c1` (racemic) [I-126, (+/−)-Methyl 3-(4-(2-amino-6-methylpyrimidin-4-yl)-1,4-oxazepan-3-yl)-4-chlorobenzoate], the IC50 lay within 300 to 1000 nM. The same measure, in the same setting: as for `CNC(=O)c1ccc(Cl)c(C2COCCCN2c2cc(C)nc(N)n2)c1` (racemic) [I-129, (+/−)-3-(4-(2-amino-6-methylpyrimidin-4-yl)-1,4-oxazepan-3-yl)-4-chloro-N-methylbenzamide], the figure is 300 to 1000 nM; as for `Cc1cc(N2CCCOCC2c2ccc(-n3cccn3)cc2Cl)nc(N)n1` (racemic) [I-133, (+/−)-4-(3-(2-chloro-4-(1H-pyrazol-1-yl)phenyl)-1,4-oxazepan-4-yl)-6-methylpyrimidin-2-amine], 300 to 1000 nM; as for `Cc1cc(N2CCCOCC2c2ccc(NS(C)(=O)=O)cc2Cl)nc(N)n1` (racemic) [I-139, (+/−)-N-[4-[4-(2-amino-6-methyl-pyrimidin-4-yl)-1,4-oxazepan-3-yl]-3-chloro-phenyl]methanesulfonamide], 300 to 1000 nM. For the compound `Cc1cc(N2CCCOCC2c2ccc(N)cc2Cl)nc(N)n1` (racemic) [I-140, (+/−)-4-[3-(4-amino-2-chloro-phenyl)-1,4-oxazepan-4-yl]-6-methyl-pyrimidin-2-amine], the IC50 was < 300 nM.

Take `CC(=O)Nc1ccc(C2COCCCN2c2cc(C)nc(N)n2)c(Cl)c1` (racemic) [I-141, (+/−)-N-(4-(4-(2-amino-6-methylpyrimidin-4-yl)-1,4-oxazepan-3-yl)-3-chlorophenyl)acetamide]: the IC50 is < 300 nM.

As for `Cc1cc(N2CCCOCC2c2cc(O)ccc2Cl)nc(N)n1` (racemic) [I-147, (+/−)-3-[4-(2-amino-6-methyl-pyrimidin-4-yl)-1,4-oxazepan-3-yl]-4-chloro-phenol], the IC50 is < 300 nM.

As to `Cc1cc(N2CCCOCC2c2ccc(C(=O)N3CCCC3)cc2Cl)nc(N)n1` (racemic) [I-151, (+/−)-(4-(4-(2-amino-6-methylpyrimidin-4-yl)-1,4-oxazepan-3-yl)-3-chlorophenyl)(pyrrolidin-1-yl)methanone], the IC50 lay within 300 to 1000 nM. Consider `Cc1cc(N2CCCOCC2c2ccc(C(=O)N(C)C3CCOCC3)cc2Cl)nc(N)n1` (racemic) [I-153, (+/−)-4-(4-(2-amino-6-methylpyrimidin-4-yl)-1,4-oxazepan-3-yl)-3-chloro-N-methyl-N-(tetrahydro-2H-pyran-4-yl)benzamide], for which the IC50 lay within 300 to 1000 nM. Regarding `Cc1cc(N2CCCOCC2c2cc(-c3ccn[nH]3)ccc2Cl)nc(N)n1` (racemic) [I-157, (+/−)-4-(3-(2-chloro-5-(1H-pyrazol-5-yl)phenyl)-1,4-oxazepan-4-yl)-6-methyl-pyrimidin-2-amine], the half-maximal inhibitory concentration (IC50) lay within 300 to 1000 nM. On to `Cc1cc(N2CCCOCC2c2cc(NC(=O)C(F)(F)F)ccc2Cl)nc(N)n1` (racemic) [I-159, (+/−)-N-[3-[4-(2-amino-6-methyl-pyrimidin-4-yl)-1,4-oxazepan-3-yl]-4-chloro-phenyl]-2,2,2-trifluoro-acetamide], for which the IC50 is < 300 nM. Same read-out and setting: as for `Cc1cc(N2CCCOC[C@@H]2c2ccccc2Cl)nc(N)n1` (single isomer, unassigned) [I-31], the figure is < 300 nM. Same read-out and setting: next, `Cc1cc(N2CCCOC[C@@H]2c2cc(N)ccc2Cl)nc(N)n1` (single isomer, unassigned) [I-87]: < 300 nM. Turning to `Cc1cc(N2CCCOC[C@@H]2c2ccc(C#N)cc2Cl)nc(N)n1` (single isomer, unassigned) [I-97], the IC50 was in the range of 300 to 1000 nM.

For the compound `COc1cc(S(C)(=O)=O)ccc1[C@H]1CCCCCN1c1cc(C)nc(N)n1` (single isomer, unassigned) [I-99, 4-[2-(2-methoxy-4-methylsulfonyl-phenyl)azepan-1-yl]-6-methyl-pyrimidin-2-amine], the IC50 was < 300 nM. Same read-out and setting: next, `COc1ccc(OC)c([C@H]2COCCCN2c2cc(C)nc(N)n2)c1` (single isomer, unassigned) [I-101]: < 300 nM; `Cc1cc(N2CCCCC[C@@H]2c2cc(OC(C)C)ccc2Cl)nc(N)n1` (single isomer, unassigned) [I-108]: < 300 nM.

Take `COc1ccc(O)cc1[C@H]1CCCCCN1c1cc(C)nc(N)n1` (single isomer, unassigned) [I-127]: the IC50 was < 300 nM.

As for `COc1ccc(Cl)c([C@H]2CCCCCN2c2cc(C)nc(N)n2)c1` (single isomer, unassigned) [I-135], the IC50 was in the range of 300 to 1000 nM.

For the compound `COc1ccc(Cl)c([C@H]2COCCCN2c2cc(C)nc(N)n2)c1` (single isomer, unassigned) [I-138], the IC50 is < 300 nM. As for `Cc1cc(N2CCCOC[C@@H]2c2ccc(C(=O)N(C)C)cc2Cl)nc(N)n1` (single isomer, unassigned) [I-144], the IC50 lay in the range of 300 to 1000 nM. Still for that read-out and setting: next, `Cc1cc(N2CCCOC[C@H]2c2cc(C(O)C(F)(F)F)ccc2Cl)nc(N)n1` (single isomer, unassigned) [I-146]: 300 to 1000 nM.

For `Cc1cc(N2CCCCCC2c2ccccc2F)nc(N)n1` (stereo not drawn) [I-36, 4-(2-(2-fluorophenyl)azepan-1-yl)-6-methylpyrimidin-2-amine], the half-inhibitory concentration (IC50) fell in the range of 300 to 1000 nM.

As for `Cc1cc(N2CCCOCC2c2cc([N+](=O)[O-])ccc2Cl)nc(N)n1` (stereo not drawn) [I-72, 4-(3-(2-chloro-5-nitrophenyl)-1,4-oxazepan-4-yl)-6-methylpyrimidin-2-amine], the IC50 lay within 300 to 1000 nM. Take `CC(=O)Nc1ccc(Cl)c(C2COCCCN2c2cc(C)nc(N)n2)c1` (stereo not drawn) [I-84]: the IC50 was < 300 nM.

As for `COCC(=O)Nc1ccc(Cl)c(C2COCCCN2c2cc(C)nc(N)n2)c1` (stereo not drawn) [I-90], the IC50 lay in the range of 300 to 1000 nM. Turning to `CNC(=O)c1ccc(C2COCCCN2c2cc(C)nc(N)n2)c(Cl)c1` (stereo not drawn) [I-106], the IC50 is < 300 nM. The same measure, in the same setting: as for `COc1ccc(O)cc1C1CCCCCN1c1cc(C)nc(N)n1` (stereo not drawn) [I-107, 3-[1-(2-amino-6-methyl-pyrimidin-4-yl)azepan-2-yl]-4-methoxy-phenol], the figure is < 300 nM; as for `Cc1cc(N2CCCOCC2c2cc([S+](C)[O-])ccc2Cl)nc(N)n1` (stereo not drawn) [I-122], 300 to 1000 nM. With `COc1ccc(Cl)cc1[C@H]1COCCCN1c1cc(C)nc(N)n1` [I-132, (S)-4-(3-(5-chloro-2-methoxyphenyl)-1,4-oxazepan-4-yl)-6-methylpyrimidin-2-amine], the IC50 lay in the range of 300 to 1000 nM. As for `CNC(=O)c1ccc(OC)c([C@H]2CCCCCN2c2cc(C)nc(N)n2)c1` [I-148, (R)-3-(1-(2-amino-6-methylpyrimidin-4-yl)azepan-2-yl)-4-methoxy-N-methylbenzamide], the IC50 was < 300 nM. With `Cc1cc(N2CCCOCC2c2cc(NC(=O)OC(C)(C)C)ccc2Cl)nc(N)n1` (stereo not drawn) [I-158], the IC50 lay in the range of 300 to 1000 nM.

As to `COc1ccc(F)cc1C1COCCCN1c1cc(C)nc(N)n1` (stereo not drawn) [I-284], the IC50 fell in the range of 300 to 1000 nM. The same measure, in the same setting: as for `COc1cc(F)c(F)cc1C1COCCCN1c1cc(C)nc(N)n1` (stereo not drawn) [I-286], the figure is 300 to 1000 nM; as for `COC(=O)c1ccc(C2COCCCN2c2cc(C)nc(N)n2)c(OC)c1` (stereo not drawn) [I-290], 300 to 1000 nM; as for `COc1ccc(Cl)cc1C1COCCCN1c1cc(C)nc(N)n1` (stereo not drawn) [I-291], 300 to 1000 nM. As to `COC(=O)c1ccc(C2COCCCN2c2cc(C)nc(N)n2)c(Cl)c1` (stereo not drawn) [I-292], the IC50 is 300 to 1000 nM. Same read-out and setting: next, `Cc1cc(N2CCCOCC2c2ccc(C(=O)N(C)C)cc2Cl)nc(N)n1` (stereo not drawn) [I-293]: 300 to 1000 nM. Take `Cc1cc(Nc2ccc(Cl)c(C3COCCCN3c3cc(C)nc(N)n3)c2)nc(N)n1` (stereo not drawn) [I-294]: the IC50 was 300 to 1000 nM. Same read-out and setting: as for `Cc1cc(N2CCC(C)OCC2c2ccccc2Cl)nc(N)n1` (stereo not drawn) [I-301], the figure is < 300 nM.
